Assay results: PubChem BioAssay (NCI)
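How tested: cells in 96-well plates exposed to compound for 48 hours at five concentrations. The concentration for full growth arrest is given as TGI.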

System: P388/ADR leukemia
Assay: NCI tumour cell line growth inhibition, 48 h

SMILES	TGI [µM]
COc1ccc2c(c1)-c1nn(CCCN(C)C)c3ccc([N+](=O)[O-])c(c13)N2	0.925
O=C(CCCN1CCC(C(O)c2ccc(F)cc2)CC1)c1ccc(F)cc1 (configuration not stated)	141
